Values quoted from earlier work as cited in patent publication US6461848B1, “Human heparanase polypeptide and cDNA” (Novartis AG, priority 1998, dated 2002).

Key:
[1] = tested on: human pancreatic (Ca-Pan-2) adenocarcinoma; settings: subcutaneous Ca-Pan-2 adenocarcinoma, nude mice
[2] = tested on: B16-F10 melanoma; settings: C57BL/6N mice, B16-F10 experimental lung metastasis
[3] = molecular target: T1, heparanase (Homo sapiens, UniProt Q9Y251)
T1 sequence (Q9Y251 36-543): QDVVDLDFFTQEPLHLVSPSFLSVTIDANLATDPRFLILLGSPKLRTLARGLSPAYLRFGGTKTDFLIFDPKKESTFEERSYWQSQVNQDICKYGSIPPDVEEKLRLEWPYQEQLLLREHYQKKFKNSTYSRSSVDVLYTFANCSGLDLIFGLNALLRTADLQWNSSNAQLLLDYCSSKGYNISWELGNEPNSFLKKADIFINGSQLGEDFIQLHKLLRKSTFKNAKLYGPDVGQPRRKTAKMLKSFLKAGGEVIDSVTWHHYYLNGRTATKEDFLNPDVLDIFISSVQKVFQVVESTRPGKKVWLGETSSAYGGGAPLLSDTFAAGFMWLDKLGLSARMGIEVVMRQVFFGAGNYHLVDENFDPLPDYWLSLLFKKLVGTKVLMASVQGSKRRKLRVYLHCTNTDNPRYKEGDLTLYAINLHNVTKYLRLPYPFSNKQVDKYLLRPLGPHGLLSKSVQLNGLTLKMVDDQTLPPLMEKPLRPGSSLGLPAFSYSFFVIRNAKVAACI

[4] = molecular target: T2, heparanase (Mus musculus, UniProt Q6YGZ1)
T2 sequence (Q6YGZ1 28-535): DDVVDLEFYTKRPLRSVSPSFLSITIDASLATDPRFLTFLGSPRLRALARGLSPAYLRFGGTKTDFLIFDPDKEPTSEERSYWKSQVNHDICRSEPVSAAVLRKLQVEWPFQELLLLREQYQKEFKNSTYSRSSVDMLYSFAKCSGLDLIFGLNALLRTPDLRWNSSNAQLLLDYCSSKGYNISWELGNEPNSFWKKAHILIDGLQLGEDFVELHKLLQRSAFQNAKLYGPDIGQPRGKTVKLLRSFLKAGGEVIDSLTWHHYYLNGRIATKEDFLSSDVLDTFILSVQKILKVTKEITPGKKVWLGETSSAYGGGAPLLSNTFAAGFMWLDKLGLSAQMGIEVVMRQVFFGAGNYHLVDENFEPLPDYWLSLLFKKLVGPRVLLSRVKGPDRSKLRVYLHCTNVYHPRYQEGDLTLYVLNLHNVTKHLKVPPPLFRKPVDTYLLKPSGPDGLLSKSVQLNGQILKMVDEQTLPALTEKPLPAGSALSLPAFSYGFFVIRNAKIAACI

[5] = molecular target: T3, murin melanoma heparanase (Mus musculus, UniProt Q6YGZ1)
T3 construct: host or cells: murine melanoma
T3 sequence (Q6YGZ1 28-535): T2 sequence (Q6YGZ1 28-535)

[6] = tested on: murin melanoma

2,3-O-desulfated heparin
inhibition of tumor growth [1]: inhibit
survival times [2]: prolonged
inhibition of heparanase activity [3]: inhibit

O=C(O)[C@@H](O)[C@H]1OC(=O)[C@H](O)[C@H]1O [1,4-saccharolactone]
inhibition of heparanase [4]: not

Cc1ccc(C(=O)Nc2ccc(S(=O)(=O)O)c3cc(S(=O)(=O)O)cc(S(=O)(=O)O)c23)cc1NC(=O)c1cccc(NC(=O)Nc2cccc(C(=O)Nc3cc(C(=O)Nc4ccc(S(=O)(=O)O)c5cc(S(=O)(=O)O)cc(S(=O)(=O)O)c45)ccc3C)c2)c1 [Suramin]
inhibition of murin melanoma heparanase [5]: strongly inhibit
inhibition of melanoma invasion [6]: strongly inhibit

heparin
inhibition of heparanase [4]: inhibited
